The values that follow come from patent publication US20250360071A1, “AGENT FOR INDUCING CILIUM” (MED R&D Co. Ltd, priority 2022, published 2025).

The test system of series [1] is HFDPCs. The experiment in a line: Proliferation of HFDPCs (MTT), Experimental Example 1. It counts as cell-based, human. The note with it: 48 hours, vs untreated cells. From the text: The activation effect by a glycoside of an oleanane-type triterpenoid was examined using dermal papilla cells of human hair follicles (HFDPCs) which are mesenchymal cells separated from the papilla of the scalp hair follicle of a normal human. As the glycoside of the oleanane-type triterpenoid (which may hereinafter be referred to as “saponin”), arganine D, arganine E, and butyroside D were used. A high proliferation rate of the HFDPCs is correlated with the acceleration of the hair growth cycle.
First, HFDPCs were seeded in a 96-well plate at […] and incubated at 37° C. in a humidified atmosphere of 5% CO2. As a culture medium, a culture medium for hair papilla cell growth to which growth factors (a bovine fetal serum, an insulin, a transferrin, a triiodothyronine, a bovine pituitary extract, or a cyproterone solution) had been added was used.
After 24 hours, the culture medium was exchanged with a culture medium containing each of various concentrations of each saponin, and the cells were incubated for 48 hours.
Subsequently, the cell proliferation was measured using 3-(4,5-dimethyl-thiazol-2-yl)-2,5-diphenyltetrazolium bromide (MTT). Specifically, an MTT reagent (5 mg/mL) was added to the cells and incubated for 8 hours, then 10% sodium dodecyl sulfate (SDS) was added thereto, and the cells were incubated overnight. Thereafter, the absorbance at 570 nm was measured using a microplate reader, and the cell proliferation was quantified as the proportion (%) of the absorbance to an absorbance of the untreated cells. In addition, the survival rate of cells was also measured by a trypan blue exclusion method.

Series [2] relates to C3H male mouse. The experiment in a line: Hair growth promoting effect in vivo, application to depilated dorsal skin, Experimental Example 5. The note with it: 150 μL of 1% applied to dorsal skin every day for 20 days. As to the method: The oleanane-type triterpenoid was applied to the dorsal skin of a mouse and the hair growth promoting effect was examined. Maslinic acid was used as the oleanane-type triterpenoid. In addition, for comparison, a group in which minoxidil was used and a control group in which only a solvent was applied were prepared.
FIG. 12 is a schematic view showing an experimental schedule. After acclimatization of a C3H male mouse, the dorsal skin was depilated with a shaver and a depilatory cream. Thereafter, 150 μL of 1% minoxidil (n=8), 1% maslinic acid (n=6), or a solvent (n=8) was applied to the mouse in each group every day for 20 days, and the mouse was observed over time.
It is known that the hair cycle of a mouse has three stages of an anagen, a catagen, and a telogen. During the anagen (the 1st day to the 16th day), the hair follicle grows into the deep subcutaneous part. In the catagen (the 17th day to the 19th day), the hair follicle stops growing and regresses to the upper subcutaneous part. In the telogen (the 20th day to the 29th day), the hair shaft is in a state where it can be lost at any time. It is known that the color of the dorsal skin of a mouse changes to pink, gray, and black due to the hair cycle. FIG. 13 is a view showing a change in the color of the dorsal skin of a mouse due to the hair cycle.

For series [3], the system named is dorsal skin. Briefly: Gene ontology (GO), GO enrichment and tissue-specific expression analysis of transcriptome, Experimental Example 7. The class given is in vivo, mouse. The conditions noted are these: 20th day. As to the method: Gene ontology (GO) analysis and GO enrichment analysis were performed based on the results of the transcriptome analysis in Experimental Example 6.
Subsequently, term enrichment analysis of the genes with expression increased specifically with respect to the skin tissue was performed. Using tissue-specific expression analysis (TSEA), genes related to the skin tissue were filtered, and functions that were specifically enriched in the maslinic acid treatment group and the tieghemelin treatment group and were not enriched in the minoxidil treatment group were selected.

For series [4], the system named is dorsal skin. The experiment in a line: Transcriptome analysis and extended network analysis of dorsal skin, Experimental Examples 6 and 8. The class given is in vivo, mouse. The note with it: 20th day, 1% applied daily; maslinic acid group vs tieghemelin group. As to the method:
A mouse in each group of Experimental Example 5 and a mouse in the group which had been subjected to the same treatment as in Experimental Example 5 using 1% tieghemelin (n=6) were euthanized on the 20th day, and the dorsal skin was collected and subjected to transcriptome analysis.
(§1) Extended network analysis was performed based on the results of the transcriptome analysis in Experimental Example 6. FIGS. 20 to 22 are views showing the results of the extended network analysis. FIG. 20 is an analysis result obtained from a dataset of the minoxidil treatment group, FIG. 21 is an analysis result obtained from a dataset of the maslinic acid treatment group, and FIG. 22 is an analysis result obtained from a dataset of the tieghemelin treatment group. In FIGS. 20 to 22, a white circle indicates a gene with increased expression, and a black circle indicates a gene with decreased expression. In addition, the size of the circle indicates the magnitude of a change in expression level.

For series [5], the system named is Iqcb1. The experiment in a line: Iqcb1 expression from transcriptome / extended network analysis, Experimental Example 8. The conditions noted are these: dorsal skin, 20th day, 1% applied daily. The class given is in vivo, mouse. On the procedure: as §1
DDX58 is an innate immune receptor that senses viral nucleic acids in the cytoplasm and activates a downstream signal transduction cascade leading to the production of type I interferons or inflammatory cytokines. IQCB1 is a protein known to be involved in formation of cilium.

The test system of series [6] is hair cycle-related genes. Briefly: Fluctuation in expression of hair cycle-related genes from transcriptome, Experimental Example 9. The class given is in vivo, mouse. The conditions noted are these: dorsal skin, 20th day. From the text: A fluctuation in expression of the hair cycle-related genes was examined, based on the results of the transcriptome analysis in Experimental Example 6.

In series [7] the test system is dorsal skin. Briefly: Fluorescence immunostaining of dorsal skin tissue sections, Experimental Example 10. It counts as in vivo, mouse. The note with it: 20th day. From the text: A mouse in each group of Experimental Examples 5 and 6 was euthanized on the 20th day, the dorsal skin was collected, and the tissue section was subjected to immunostaining.
FIG. 23 is a photomicrograph showing the results of detecting the expressions of β-catenin and K14 by fluorescence immunostaining. In addition, the nuclei were stained with 4′,6-diamidino-2-phenylindole (DAPI). The β-catenin is a hair growth promoting marker and is also a marker for the start of the anagen. K14 is an epidermal marker and is known to increase with the differentiation of hair follicle stem cells.
FIG. 24 is a photomicrograph showing the results of detecting the expression of VEGF by fluorescence immunostaining. In addition, the nuclei were stained with DAPI. VEGF is known to improve the vascularization of hair follicles, increase the size of hair follicles and hair, and promote the growth and circulation of hair follicles.

Series [8] deals with HFDPC. The experiment in a line: Quantitative real-time RT-PCR of hair growth markers in HFDPC, Experimental Example 3. The class given is cell-based, human. The conditions noted are these: 48 hours; for expression level of the FGF1 gene in the HFDPC / expression level of the ALPL gene in the HFDPC / expression level of the CTNNB1 gene in HFDPC: vs control. On the procedure:
The HFDPC was treated with butyroside D, and then the expression of the hair growth marker was confirmed by quantitative real-time RT-PCR.
As the hair growth markers, a CTNNB1 gene (β-catenin), an ALPL gene (alkaline phosphatase), and an FGF1 gene (fiblobrast growth factor 1) were examined. It is known that the β-catenin induces anagen of the hair cycle and promotes the proliferation of keratinocytes. ALPL is a representative hair growth marker in the hair papilla cells. FGF1 is a marker for morphogenesis of hair follicles.
HFDPCs were seeded in a 6-well plate at 5×10^4 cells/well and incubated at 37° C. for 24 hours. Subsequently, the culture medium was removed and exchanged with a culture medium including 0 (Control), 0.5, 5, and 10 nM of butyroside D. In addition, for comparison, cells treated with a culture medium including minoxidil (0.1 μM), which is an existing pharmaceutical product, were also prepared.
Subsequently, after 48 hours, the cells were washed with cold PBS and a total RNA was extracted using an ISOGEN kit (Nippon Gene Co., Ltd.). Next, the total RNA was quantified using a NanoDrop 2000 spectrophotometer (Thermo Fisher Scientific) and quantitative real-time RT-PCR analysis was performed.
First, using a SuperScript III reverse transcription kit (Thermo Fisher Scientific), a cDNA was synthesized from the extracted total RNA by a cycling protocol of 95° C. for 10 minutes, 40 cycles of 95° C. for 15 seconds, and 60° C. for 1 minute.
Subsequently, a real-time PCR was performed using a 7500 Fast Real-Time PCR system (Software 1.3.1, Thermo Fisher Scientific) and TaqMan probes specific for CTNNB1, ALPL, and FGF1. GAPDH was used as an endogenous control and the relative mRNA amount was calculated by applying a 2^−ΔΔCt method by comparison with GAPDH.

Series [9] concerns HFDPC. Described as above. The conditions noted are these: vs 0.1 M minoxidil (so in the source), 48 hours. The class given is cell-based, human.
The mark [10] stands for this setting: fluorescence immunostaining, dorsal skin.

In the case of `C[C@@H]1O[C@@H](O[C@H]2[C@H](OC(=O)[C@]34CCC(C)(C)C[C@H]3C3=CC[C@@H]5[C@@]6(C)C[C@H](O)[C@H](O[C@@H]7O[C@H](CO[C@@H]8O[C@H](CO)[C@@H](O)[C@H](O)[C@H]8O)[C@@H](O)[C@H](O)[C@H]7O)[C@@](C)(CO)[C@@H]6[C@H](O)C[C@@]5(C)[C@]3(C)CC4)OC[C@@H](O)[C@@H]2O)[C@H](O)[C@H](O)[C@H]1O[C@@H]1OC[C@@H](O)[C@H](O[C@@H]2OC[C@](O)(CO)[C@H]2O)[C@H]1O` [arganine E], in [1] (2 μM), the “proliferation of HFDPCs” value is on record as “significantly promotes the proliferation”.

For the compound `Nc1cc(N2CCCCC2)nc(N)[n+]1[O-]` [minoxidil, reference compound], the “influence on the body weight of the mouse” value in series [2] is given as “No influence on the body weight”. Moreover, in [3], the “number of genes with decreased expression common among the minoxidil, maslinic acid and tieghemelin treatment groups” value was determined as 316; the “number of genes with increased expression common among the minoxidil, maslinic acid and tieghemelin treatment groups” value was found to be 342.

Consider `C[C@@H]1O[C@@H](O[C@@H]2[C@@H](O)[C@H](O[C@@H]3[C@@H](O)[C@@H](O)[C@H](O[C@H]4[C@H](OC(=O)[C@]56CCC(C)(C)C[C@H]5C5=CC[C@@H]7[C@@]8(C)C[C@H](O)[C@H](O[C@@H]9O[C@H](C(=O)O)[C@@H](O)[C@H](O)[C@H]9O)[C@@](C)(CO)[C@@H]8[C@H](O)C[C@@]7(C)[C@]5(C)C[C@H]6O)OC[C@H](O)[C@@H]4O)O[C@H]3C)OC[C@H]2O)[C@H](O)[C@H](O)[C@H]1O` [tieghemelin], for which the “pattern of differentially expressed genes in the dorsal skins” value in series [4] is on record as “showed the same pattern”. In series [3], the “number of genes with decreased expression common among the minoxidil, maslinic acid and tieghemelin treatment groups” value was 316; the “number of genes with decreased expression common between the minoxidil and tieghemelin treatment groups” value is “Ninety-four”; the “number of genes with increased expression common among the minoxidil, maslinic acid and tieghemelin treatment groups” value worked out at 342; the “number of genes with increased expression common between the minoxidil and tieghemelin treatment groups” value was “One-hundred-twenty-eight”. In addition, in [3] (functions not enriched in the minoxidil treatment group), the “functions specifically enriched among skin-tissue genes with increased expression (TSEA)” value is “the proliferation of keratinocytes and epithelial cells, the control of the MAPK cascade, the intercellular adhesion, and the activation of the cytokine receptor interaction”. Moreover, in [5], the Iqcb1 expression entry was “upregulated” and the “expression level of Iqcb1 compared with the minoxidil treatment group” value was “increased more”. In addition, in series [6], the “expression level of Aepb1” value was “decreased”, the “expression level of KRT15” value is listed as “decreased” and the “expression of NF-κB” value is listed as “decreased”. Also, the “stage of the hair follicle from its shape” value in series [7] (dorsal skin section) was “anagen (II)”. Besides, in series [7] (setting [10]), the “expression of K14” value is “highly expressed”, the “expression of VEGF” value is listed as “highly expressed” and the “expression of β-catenin” value is listed as “highly expressed”.

With arganine D, the “proliferation of HFDPCs” value in series [1] (2 μM), in series [1] (5 μM) and in series [1] (10 μM) was “significantly promotes the proliferation” in each case.

Consider butyroside D, for which the “proliferation of HFDPCs” value in [1] (2 μM), in [1] (5 μM) and in series [1] (10 μM) was “significantly promotes the proliferation” each time. Also, the “expression level of the FGF1 gene in the HFDPC” value in [8] (0.5 nM), in [8] (5 nM) and in series [8] (10 nM) was “significantly increased” in each case. In addition, the “expression level of the ALPL gene in the HFDPC” value in series [8] (5 nM) and in [8] (10 nM) was “significantly increased” each time. Moreover, the “expression level of the CTNNB1 gene in HFDPC” value in [8] (5 nM) and in [8] (10 nM) was “significantly increased” throughout. Also, in series [8] (vs 0.1 μM minoxidil), the “effect of increasing the expression level of the ALPL gene compared with minoxidil positive control (sentence in the FGF1 paragraph)” value is “more than the effect of the treatment with 0.1 μM minoxidil”. Further, the “effect of increasing the expression level of the ALPL gene compared with minoxidil positive control” value in series [9] is listed as “more than the effect of the treatment with 0.1 M minoxidil”. Moreover, the “effect of increasing the expression level of the CTNNB1 gene compared with minoxidil positive control” value in series [9] was “more than the effect of the treatment with 0.1 M minoxidil”.
